Measured values from patent publication US8492346B2, “Methods of use of epsilon inhibitor compounds for the attenuation of pain” (KAI Pharmaceuticals, Inc., priority 2007, dated 2013).

System: carrageenan-induced mechanical hyperalgesia
Experiment: Carrageenan inflammatory pain model, Randall-Selitto paw-withdrawal test
Format: in vivo, rat
Conditions: for Mechanical hyperalgesia (PWT): FIG. 18
Description: (§1) The nociceptive flexior reflex was quantified on lightly restrained rats by using a Basile Analgesymeter (Randall-Selitto test). Inflammatory hyperlagesia was induced by injection of Carr (1%, 5 uL, i.d.), which was injected unilaterally to the dorsum of the hindpaw one-hour prior to compound administration. The εPKC inhibitor peptide (εV1-2) was injected via systemic routes.
as §1, with “μL,” for “uL,”, “one-hr” for “one-hour”
The rat carrageenan model has been extensively used to evaluate the response to modulators of inflammatory pain. In the model used for the studies described below, a single 5 microL injection of a 1% solution of carrageenan into the plantar surface of the right hindpaw was used to elicit an inflammatory response resulting in local edema and mechanical hyperalgesia. The mechanical hyperalgesia was quantitated as previously described using measurements of the nociceptive flexion reflex (Randall-Selitto paw-withdrawal test) in response to mechanical painful stimulation at the site of carrageenan injection. […] In the absence of further treatment, the PWT remained stable at ˜55 g for several hours, making it possible to use this model to evaluate the time-course of the response to treatment over the course of at least six hours after the establishment of the disease state.

Ac-EAVSLKPTGGYGRKKRRQRRR-NH2 [KAI-1678]
Ability to reverse mechanical hyperalgesia in sympathectomized animals (25 mcg/kg/hr subcutaneous infusion, contralateral hindlimb, FIG. 24): abrogated
Carrageenan-induced mechanical hyperalgesia after sciatic and saphenous nerve transection (25 mcg/kg/hr subcutaneous infusion, contralateral limb, proximal or distal to transection, FIG. 23): effective at eliminating carrageenan-induced mechanical hyperalgesia when the site of compound administration was proximal, but not distal, to the site of nerve transection
Carrageenan-induced mechanical hyperalgesia (IV infusion, rates as high as 1000 mcg/kg/hr for as long as 5 hours, FIG. 22): had no effect on carrageenan-induced mechanical hyperalgesia
Mechanical hyperalgesia (PWT) (intradermal 10 mcg/kg, ipsilateral hindpaw): completely reverse the mechanical hyperalgesia
Mechanical hyperalgesia (PWT) (intradermal 10 or 100 mcg/kg, contralateral hindpaw): completely reverse the mechanical hyperalgesia
Time to complete reversal of mechanical hyperalgesia (intradermal 100 mcg/kg, ipsilateral): ≤ 5 min
Mechanical hyperalgesia (PWT) (intradermal 100 mcg/kg, ipsilateral hindpaw): increasing the PWT beyond the pre-carrageenan levels
Lowest dose completely reversing mechanical hyperalgesia (subcutaneous bolus, contralateral hindlimb, for a short period): 0.1 µg/kg
Pain response (mechanical hyperalgesia) (subcutaneous bolus, thigh of contralateral hindlimb, FIG. 19): dose-dependent suppression in the pain response
Reversal of pain (subcutaneous infusion 250 mcg/kg/hr): rapid and sustained without any recurrence of hyperalgesia
Effect on mechanical hyperalgesia (subcutaneous infusion 25,000 mcg/kg/hr, data not shown): comparable to that seen with the 250 mcg/kg/hr infusion
Mechanical hyperalgesia, first phase of subcutaneous infusion (subcutaneous infusion, first phase approximately one hour, FIG. 21): rapid and complete reversal of the mechanical hyperalgesia at all doses tested
Dose rate completely reversing mechanical hyperalgesia in second phase (subcutaneous infusion, second phase two to three hours after start): ≥ 25 µg/kg/h
